# Data: ChEMBL document CHEMBL3826932, “An orally available tyrosine kinase ALK and RET dual inhibitor bearing the tetracyclic benzo[b]carbazolone core” (Eur J Med Chem, 2016)
# Calls of active or inactive are those of the source. No cut-off for these calls is given here.
# How the values were obtained:
# NIH3T3 [1] = experiment: Antitumor activity against mouse NIH/3T3 cells expressing EML4-ALK L1196M mutant xenografted in nude mouse assessed as tumor stasis at 50 mg/kg, po qd administered for 10 days; type: functional, organism-based
# NIH3T3 [2] = experiment: Antitumor activity against mouse NIH/3T3 cells expressing EML4-ALK L1196M mutant xenografted in nude mouse assessed as partial tumor regression at 50 mg/kg, po qd administered for 10 days; type: functional, organism-based
# cells [3] = settings: Homo sapiens, KARPAS-299, 72 h
# Description: Antiproliferative activity against human KARPAS299 cells after 72 hrs by SRB/CCK-8 assay
# cells [4] = settings: Homo sapiens, SU-DHL-1, 72 h
# Description: Antiproliferative activity against human SU-DHL1 cells after 72 hrs by SRB/CCK-8 assay
# cells [5] = settings: Homo sapiens, SUP-M2, 72 h
# Description: Antiproliferative activity against human SUP-M2 cells after 72 hrs by SRB/CCK-8 assay
# cells [6] = settings: Homo sapiens, NCI-H3122, 72 h
# Description: Antiproliferative activity against human NCI-H3122 cells after 72 hrs by SRB/CCK-8 assay
# cells [7] = settings: Mus musculus, NIH3T3, 72 h
# Description: Antiproliferative activity against mouse NIH/3T3 cells expressing wild type EML4-ALK after 72 hrs by SRB/CCK-8 assay
# cells [8] = settings: Mus musculus, NIH3T3, 72 h; remark: listed apart in the source
# Description: Antiproliferative activity against mouse NIH/3T3 cells expressing EML4-ALK L1196 mutant after 72 hrs by SRB/CCK-8 assay
# animal or person [9] = settings: Mus musculus, NIH3T3, po, 240 h, read-out: TGI
# Description: Antitumor activity against mouse NIH/3T3 cells expressing wild type EML4-ALK xenografted in nude mouse assessed as tumor growth inhibition at 50 mg/kg, po qd administered for 10 days
# animal or person [10] = settings: Mus musculus, NIH3T3, po, 240 h, read-out: TGI; remark: listed apart in the source
# Description: Antitumor activity against mouse NIH/3T3 cells expressing EML4-ALK L1196M mutant xenografted in nude mouse assessed as tumor growth inhibition at 50 mg/kg, po qd administered for 10 days
# [11] = Antitumor activity against mouse NIH/3T3 cells expressing wild type EML4-ALK xenografted in nude mouse assessed as tumor growth inhibition at 40 mg/kg, po qd administered for 10 days; type: functional; settings: NIH3T3, po, 240 h, read-out: TGI
# [12] = Antitumor activity against mouse NIH/3T3 cells expressing wild type EML4-ALK xenografted in nude mouse assessed as tumor growth inhibition at 20 mg/kg, po qd administered for 10 days; type: functional; settings: NIH3T3, po, 240 h, read-out: TGI
# [13] = Antitumor activity against mouse NIH/3T3 cells expressing EML4-ALK L1196M mutant xenografted in nude mouse assessed as tumor growth inhibition at 40 mg/kg, po qd administered for 10 days; type: functional; settings: NIH3T3, po, 240 h, read-out: TGI
# [14] = Antitumor activity against mouse NIH/3T3 cells expressing EML4-ALK L1196M mutant xenografted in nude mouse assessed as tumor growth inhibition at 20 mg/kg, po qd administered for 10 days; type: functional; settings: NIH3T3, po, 240 h, read-out: TGI
# [15] = molecular target: Hepatocyte growth factor receptor (Homo sapiens, UniProt P08581); experiment: Inhibition of N-terminal His6-tagged recombinant human c-Met (974 residues) expressed in insect Sf21 cells using poly(Glu,Tyr)4:1 as substrate incubated for 60 mins by ELISA
# [16] = molecular target: Leukocyte tyrosine kinase receptor (Homo sapiens, UniProt P29376); experiment: Inhibition of recombinant LTK (unknown origin) using poly(Glu,Tyr)4:1 as substrate incubated for 60 mins by ELISA
# [17] = molecular target: Proto-oncogene tyrosine-protein kinase ROS (Homo sapiens, UniProt P08922); experiment: Inhibition of recombinant ROS1 (unknown origin) using poly(Glu,Tyr)4:1 as substrate incubated for 60 mins by ELISA
# [18] = molecular target: Insulin-like growth factor 1 receptor (Homo sapiens, UniProt P08069); experiment: Inhibition of N-terminal His6-tagged recombinant human IGF-1R (959 residues) expressed in insect Sf21 cells using poly(Glu,Tyr)4:1 as substrate incubated for 60 mins by ELISA
# [19] = molecular target: Tyrosine-protein kinase receptor UFO (Homo sapiens, UniProt P30530); experiment: Inhibition of recombinant human AXL using poly(Glu,Tyr)4:1 as substrate incubated for 60 mins by ELISA
# [20] = molecular target: Tyrosine-protein kinase receptor TYRO3 (Homo sapiens, UniProt Q06418); experiment: Inhibition of N-terminal His6-tagged recombinant human TYRO3 (451 residues) expressed in insect Sf21 cells using poly(Glu,Tyr)4:1 as substrate incubated for 60 mins by ELISA
# [21] = molecular target: Macrophage-stimulating protein receptor (Homo sapiens, UniProt Q04912); experiment: Inhibition of N-terminal His6-tagged recombinant human Ron (983 residues) expressed in insect Sf21 cells using poly(Glu,Tyr)4:1 as substrate incubated for 60 mins by ELISA
# [22] = molecular target: Vascular endothelial growth factor receptor 2 (Homo sapiens, UniProt P35968); experiment: Inhibition of N-terminal His6-tagged recombinant human KDR (790 residues) expressed in insect Sf21 cells using poly(Glu,Tyr)4:1 as substrate incubated for 60 mins by ELISA
# [23] = molecular target: Platelet-derived growth factor receptor alpha (Homo sapiens, UniProt P16234); experiment: Inhibition of N-terminal His6-tagged recombinant human PDGFRalpha (550 residues) expressed in insect Sf21 cells using poly(Glu,Tyr)4:1 as substrate incubated for 60 mins by ELISA
# [24] = molecular target: Epidermal growth factor receptor (Homo sapiens, UniProt P00533, L858R/T790M); experiment: Inhibition of N-terminal GST-tagged recombinant human EGFR T790M/L858R double mutant (696 residues) expressed in insect Sf21 cells using poly(Glu,Tyr)4:1 as substrate incubated for 60 mins by ELISA
# [25] = molecular target: Platelet-derived growth factor receptor beta (Homo sapiens, UniProt P09619); experiment: Inhibition of N-terminal His6-tagged recombinant human PDGFRbeta (557 residues) expressed in insect Sf21 cells using poly(Glu,Tyr)4:1 as substrate incubated for 60 mins by ELISA
# [26] = molecular target: Receptor tyrosine-protein kinase erbB-4 (Homo sapiens, UniProt Q15303); experiment: Inhibition of N-terminal His6-tagged recombinant human ErbB4 (709 to 991 residues) expressed in insect Sf21 cells using poly(Glu,Tyr)4:1 as substrate incubated for 60 mins by ELISA
# [27] = molecular target: Vascular endothelial growth factor receptor 1 (Homo sapiens, UniProt P17948); experiment: Inhibition of N-terminal GST-tagged recombinant human FLT1 (783 residues) expressed in insect Sf21 cells using poly(Glu,Tyr)4:1 as substrate incubated for 60 mins by ELISA
# [28] = molecular target: Receptor-type tyrosine-protein kinase FLT3 (Homo sapiens, UniProt P36888); experiment: Inhibition of N-terminal GST-tagged recombinant human FLT3 (564 residues) expressed in insect Sf21 cells using poly(Glu,Tyr)4:1 as substrate incubated for 60 mins by ELISA
# [29] = molecular target: Proto-oncogene tyrosine-protein kinase Src (Homo sapiens, UniProt P12931); experiment: Inhibition of recombinant human c-Src expressed in insect Sf9 cells using poly(Glu,Tyr)4:1 as substrate incubated for 60 mins by ELISA
# [30] = molecular target: Tyrosine-protein kinase ABL1 (Mus musculus, UniProt P00520); experiment: Inhibition of N-terminal His6-tagged recombinant mouse ABL (27 to 1123 residues) expressed in insect Sf21 cells using poly(Glu,Tyr)4:1 as substrate incubated for 60 mins by ELISA
# [31] = molecular target: Fibroblast growth factor receptor 1 (Homo sapiens, UniProt P11362); experiment: Inhibition of N-terminal GST-tagged recombinant human FGFR1 (456 to 765 residues) expressed in insect Sf21 cells using poly(Glu,Tyr)4:1 as substrate incubated for 60 mins by ELISA
# [32] = molecular target: Receptor tyrosine-protein kinase erbB-2 (Homo sapiens, UniProt P04626); experiment: Inhibition of human ErbB2 using poly(Glu,Tyr)4:1 as substrate incubated for 60 mins by ELISA
# [33] = molecular target: Mast/stem cell growth factor receptor Kit (Homo sapiens, UniProt P10721); experiment: Inhibition of N-terminal GST-tagged recombinant human c-Kit (544 residues) expressed in insect Sf21 cells using poly(Glu,Tyr)4:1 as substrate incubated for 60 mins by ELISA
# [34] = molecular target: T1, Proto-oncogene tyrosine-protein kinase receptor Ret (Homo sapiens, UniProt P07949); experiment: Inhibition of RET (unknown origin) phosphorylation at […] residue in mouse BaF3/CCDC6-RET cells after 1 hr by Western blot analysis; type: cell-based
# [35] = molecular target: T1, Proto-oncogene tyrosine-protein kinase receptor Ret; experiment: Inhibition of RET (unknown origin) in mouse BaF3/CCDC6-RET cells assessed as suppression of ERK1/2 phosphorylation at T202/Y204 residue after 1 hr by Western blot analysis; type: cell-based
# [36] = molecular target: T1, Proto-oncogene tyrosine-protein kinase receptor Ret; experiment: Inhibition of RET (unknown origin) in mouse BaF3/CCDC6-RET cells assessed as suppression of AKT phosphorylation at S473 residue after 1 hr by Western blot analysis; type: cell-based
# [37] = molecular target: T1, Proto-oncogene tyrosine-protein kinase receptor Ret; experiment: Inhibition of RET (unknown origin) in mouse BaF3/CCDC6-RET cells assessed as suppression of STAT3 phosphorylation at Y705 residue after 1 hr by Western blot analysis; type: cell-based
# NIH3T3 [38] = experiment: Antitumor activity against mouse NIH/3T3 cells expressing wild type EML4-ALK xenografted in nude mouse assessed as tumor stasis at 20 to 40 mg/kg, po qd administered for 10 days; type: functional, organism-based
# NIH3T3 [39] = experiment: Antitumor activity against mouse NIH/3T3 cells expressing wild type EML4-ALK xenografted in nude mouse assessed as partial tumor regression at 20 to 40 mg/kg, po qd administered for 10 days; type: functional, organism-based
# NIH3T3 [40] = experiment: Antitumor activity against mouse NIH/3T3 cells expressing EML4-ALK L1196M mutant xenografted in nude mouse assessed as tumor stasis at 40 mg/kg, po qd administered for 10 days; type: functional, organism-based
# NIH3T3 [41] = experiment: Antitumor activity against mouse NIH/3T3 cells expressing EML4-ALK L1196M mutant xenografted in nude mouse assessed as partial tumor regression at 40 mg/kg, po qd administered for 10 days; type: functional, organism-based
# Mus musculus = experiment: Toxicity in nude mouse assessed as weight loss at 20 to 40 mg/kg, po qd administered for 10 days; type: organism-based; settings: in vivo, 240 h
# [42] = molecular target: T1, Proto-oncogene tyrosine-protein kinase receptor Ret; experiment: biochemical
# T1 sequence (P07949 whole entry): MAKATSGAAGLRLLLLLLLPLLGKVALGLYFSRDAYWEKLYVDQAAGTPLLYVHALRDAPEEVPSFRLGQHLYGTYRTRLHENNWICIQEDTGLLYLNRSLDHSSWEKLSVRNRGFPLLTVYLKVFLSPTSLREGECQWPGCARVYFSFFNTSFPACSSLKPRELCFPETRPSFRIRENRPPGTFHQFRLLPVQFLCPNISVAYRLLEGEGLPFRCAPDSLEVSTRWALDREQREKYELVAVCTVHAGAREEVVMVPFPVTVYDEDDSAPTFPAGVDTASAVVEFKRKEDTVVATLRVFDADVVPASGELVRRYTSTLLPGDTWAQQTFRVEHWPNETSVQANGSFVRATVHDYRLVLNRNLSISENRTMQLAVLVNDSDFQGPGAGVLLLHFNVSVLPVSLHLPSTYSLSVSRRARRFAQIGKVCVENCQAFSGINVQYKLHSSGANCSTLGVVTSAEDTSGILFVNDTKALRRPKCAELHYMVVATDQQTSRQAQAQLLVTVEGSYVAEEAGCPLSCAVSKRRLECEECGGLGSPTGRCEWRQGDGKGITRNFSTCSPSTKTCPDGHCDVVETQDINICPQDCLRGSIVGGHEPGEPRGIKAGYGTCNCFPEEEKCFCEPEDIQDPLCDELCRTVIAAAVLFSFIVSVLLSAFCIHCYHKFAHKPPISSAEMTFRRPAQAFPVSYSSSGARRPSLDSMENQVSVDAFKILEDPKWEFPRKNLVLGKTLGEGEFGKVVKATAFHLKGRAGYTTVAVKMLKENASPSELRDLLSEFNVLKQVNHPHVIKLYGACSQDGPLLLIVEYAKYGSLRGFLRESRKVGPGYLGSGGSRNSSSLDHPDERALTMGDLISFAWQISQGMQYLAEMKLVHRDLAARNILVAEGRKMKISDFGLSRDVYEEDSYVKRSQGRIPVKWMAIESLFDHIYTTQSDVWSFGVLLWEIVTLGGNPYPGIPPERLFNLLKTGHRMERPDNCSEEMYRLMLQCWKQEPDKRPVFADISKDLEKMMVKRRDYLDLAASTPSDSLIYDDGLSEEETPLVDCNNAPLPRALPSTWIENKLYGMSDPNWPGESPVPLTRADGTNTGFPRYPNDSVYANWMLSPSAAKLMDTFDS
# Sequence of Receptor tyrosine-protein kinase erbB-4 (Q15303 whole entry, the tested form may be a part): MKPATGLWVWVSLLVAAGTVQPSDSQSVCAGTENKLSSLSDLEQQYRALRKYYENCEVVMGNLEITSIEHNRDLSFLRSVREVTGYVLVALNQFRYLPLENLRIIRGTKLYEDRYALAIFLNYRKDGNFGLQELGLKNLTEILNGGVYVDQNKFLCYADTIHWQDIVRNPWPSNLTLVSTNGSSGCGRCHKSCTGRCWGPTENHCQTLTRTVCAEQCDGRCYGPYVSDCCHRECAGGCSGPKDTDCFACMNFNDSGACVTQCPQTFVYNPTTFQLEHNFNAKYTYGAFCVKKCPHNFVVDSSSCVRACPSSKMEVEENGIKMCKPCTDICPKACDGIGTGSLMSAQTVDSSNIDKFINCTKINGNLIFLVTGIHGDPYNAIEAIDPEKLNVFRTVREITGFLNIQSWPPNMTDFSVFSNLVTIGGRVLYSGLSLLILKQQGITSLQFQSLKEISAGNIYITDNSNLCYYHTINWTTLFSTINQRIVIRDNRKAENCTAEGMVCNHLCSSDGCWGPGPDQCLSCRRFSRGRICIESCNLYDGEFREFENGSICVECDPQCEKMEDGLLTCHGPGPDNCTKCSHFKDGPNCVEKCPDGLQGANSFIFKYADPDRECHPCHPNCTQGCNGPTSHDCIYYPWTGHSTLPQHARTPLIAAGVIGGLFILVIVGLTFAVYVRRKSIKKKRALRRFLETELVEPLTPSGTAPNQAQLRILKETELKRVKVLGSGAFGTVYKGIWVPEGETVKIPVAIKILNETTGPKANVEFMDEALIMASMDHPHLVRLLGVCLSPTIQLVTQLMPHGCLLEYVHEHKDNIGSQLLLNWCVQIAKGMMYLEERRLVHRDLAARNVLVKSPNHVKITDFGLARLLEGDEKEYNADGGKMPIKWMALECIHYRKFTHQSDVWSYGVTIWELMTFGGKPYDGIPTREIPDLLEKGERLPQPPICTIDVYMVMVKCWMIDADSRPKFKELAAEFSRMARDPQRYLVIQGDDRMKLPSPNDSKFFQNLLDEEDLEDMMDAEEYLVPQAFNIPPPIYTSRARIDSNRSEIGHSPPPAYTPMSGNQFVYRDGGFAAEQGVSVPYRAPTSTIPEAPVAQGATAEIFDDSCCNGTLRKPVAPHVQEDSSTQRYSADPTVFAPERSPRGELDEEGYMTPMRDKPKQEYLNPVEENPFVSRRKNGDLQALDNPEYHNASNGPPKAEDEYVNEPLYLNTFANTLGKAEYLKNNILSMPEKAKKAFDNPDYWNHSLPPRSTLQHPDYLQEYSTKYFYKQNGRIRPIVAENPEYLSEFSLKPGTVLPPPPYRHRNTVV
# Sequence of Leukocyte tyrosine kinase receptor (P29376 whole entry): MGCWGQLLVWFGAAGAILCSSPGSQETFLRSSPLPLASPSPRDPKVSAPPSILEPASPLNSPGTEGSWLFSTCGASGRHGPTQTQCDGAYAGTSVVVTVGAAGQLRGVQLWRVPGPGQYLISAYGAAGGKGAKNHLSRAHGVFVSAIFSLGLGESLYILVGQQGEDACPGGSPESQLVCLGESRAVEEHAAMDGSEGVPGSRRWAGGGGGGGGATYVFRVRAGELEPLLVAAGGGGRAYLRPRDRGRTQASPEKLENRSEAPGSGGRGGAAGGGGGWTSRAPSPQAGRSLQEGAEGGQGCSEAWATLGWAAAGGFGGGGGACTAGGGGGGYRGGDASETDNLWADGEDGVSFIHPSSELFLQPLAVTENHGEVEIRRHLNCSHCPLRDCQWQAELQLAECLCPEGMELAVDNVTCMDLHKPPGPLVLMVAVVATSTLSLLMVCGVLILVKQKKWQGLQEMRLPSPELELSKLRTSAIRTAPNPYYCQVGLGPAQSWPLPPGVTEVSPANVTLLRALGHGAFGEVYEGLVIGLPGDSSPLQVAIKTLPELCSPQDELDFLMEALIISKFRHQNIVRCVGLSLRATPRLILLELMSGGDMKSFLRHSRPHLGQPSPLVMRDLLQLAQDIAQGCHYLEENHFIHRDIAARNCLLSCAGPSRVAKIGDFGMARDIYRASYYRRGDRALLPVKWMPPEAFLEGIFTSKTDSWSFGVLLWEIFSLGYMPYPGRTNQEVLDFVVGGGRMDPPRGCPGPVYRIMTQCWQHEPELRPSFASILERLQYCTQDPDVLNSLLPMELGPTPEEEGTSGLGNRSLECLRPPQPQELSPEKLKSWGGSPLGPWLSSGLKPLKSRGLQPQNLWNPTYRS
# Sequence of Insulin-like growth factor 1 receptor (P08069 31-736 limits assumed): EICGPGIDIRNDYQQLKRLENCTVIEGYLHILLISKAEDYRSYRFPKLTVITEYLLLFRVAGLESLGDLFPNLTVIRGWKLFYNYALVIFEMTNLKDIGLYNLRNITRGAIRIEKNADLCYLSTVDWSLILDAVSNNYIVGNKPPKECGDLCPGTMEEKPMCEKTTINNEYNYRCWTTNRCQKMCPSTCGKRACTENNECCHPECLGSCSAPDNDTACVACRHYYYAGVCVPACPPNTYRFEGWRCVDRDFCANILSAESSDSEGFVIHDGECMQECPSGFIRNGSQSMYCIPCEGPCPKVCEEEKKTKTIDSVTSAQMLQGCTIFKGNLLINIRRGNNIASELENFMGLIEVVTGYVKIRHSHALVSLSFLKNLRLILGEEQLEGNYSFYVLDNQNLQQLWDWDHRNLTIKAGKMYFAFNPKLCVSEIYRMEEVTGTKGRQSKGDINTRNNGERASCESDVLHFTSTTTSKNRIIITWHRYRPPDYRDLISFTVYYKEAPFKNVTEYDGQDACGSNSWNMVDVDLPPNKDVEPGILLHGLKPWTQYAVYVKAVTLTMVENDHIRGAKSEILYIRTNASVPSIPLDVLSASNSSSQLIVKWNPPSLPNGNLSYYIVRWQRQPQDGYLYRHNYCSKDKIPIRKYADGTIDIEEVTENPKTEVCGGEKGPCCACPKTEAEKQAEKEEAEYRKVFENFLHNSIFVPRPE
# Sequence of Insulin-like growth factor 1 receptor (P08069 741-1367 limits assumed): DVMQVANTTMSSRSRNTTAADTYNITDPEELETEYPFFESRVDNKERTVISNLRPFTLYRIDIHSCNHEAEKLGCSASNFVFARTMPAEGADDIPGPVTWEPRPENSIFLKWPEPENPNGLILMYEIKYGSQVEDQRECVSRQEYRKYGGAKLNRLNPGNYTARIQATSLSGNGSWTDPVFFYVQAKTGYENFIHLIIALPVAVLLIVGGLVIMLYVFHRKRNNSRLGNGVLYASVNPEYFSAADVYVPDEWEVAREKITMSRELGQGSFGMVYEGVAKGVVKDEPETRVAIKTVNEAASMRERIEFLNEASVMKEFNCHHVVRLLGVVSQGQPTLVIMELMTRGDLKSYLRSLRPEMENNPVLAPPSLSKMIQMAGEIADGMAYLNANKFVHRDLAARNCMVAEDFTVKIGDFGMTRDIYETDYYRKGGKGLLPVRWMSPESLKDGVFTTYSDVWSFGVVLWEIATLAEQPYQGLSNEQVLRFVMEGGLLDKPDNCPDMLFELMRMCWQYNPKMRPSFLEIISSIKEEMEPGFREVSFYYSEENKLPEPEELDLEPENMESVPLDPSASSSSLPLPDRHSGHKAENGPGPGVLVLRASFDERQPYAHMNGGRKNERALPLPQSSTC
compound,measurement,setting,value
CCc1cc2c(cc1N1CCC(N3CCOCC3)CC1)C(C)(C)c1[nH]c3cc(C#N)ccc3c1C2=O [ALECTINIB],Activity,NIH3T3 [1],Active
same,Activity,NIH3T3 [2],Active
same,IC50,cells [3],15 nM
same,IC50,cells [4],20.5 nM
same,IC50,cells [5],17.9 nM
same,IC50,cells [6],17.4 nM
same,IC50,cells [7],32.3 nM
same,IC50,cells [8],132 nM
same,inhibition in vivo at 50 mg/kg,animal or person [9],103%
same,inhibition in vivo at 50 mg/kg,animal or person [10],83.5%
CC1(C)c2cc(C3CCN(CC4CCOCC4)CC3)ccc2C(=O)c2c1[nH]c1cc(C#N)ccc21,inhibition in vivo at 40 mg/kg,[11],102%
same,inhibition in vivo at 20 mg/kg,[12],102%
same,inhibition in vivo at 40 mg/kg,[13],87.3%
same,inhibition in vivo at 20 mg/kg,[14],56.9%
same,IC50,[15],> 1000 nM
same,IC50,[16],43.1 nM
same,IC50,[17],> 1000 nM
same,IC50,[18],27.8 nM
same,IC50,[19],170 nM
same,IC50,[20],71.9 nM
same,IC50,[21],93.4 nM
same,IC50,[22],104 nM
same,IC50,[23],402 nM
same,IC50,[24],350 nM
same,IC50,[25],64.2 nM
same,IC50,[26],213 nM
same,IC50,[27],159 nM
same,IC50,[28],85.7 nM
same,IC50,[29],75.4 nM
same,IC50,[30],> 1000 nM
same,IC50,[31],> 1000 nM
same,IC50,[32],> 1000 nM
same,IC50,[33],> 1000 nM
same,inhibition,[34],Dose-dependent effect
same,inhibition,[35],Dose-dependent effect
same,inhibition,[36],Dose-dependent effect
same,inhibition,[37],Dose-dependent effect
same,Activity,NIH3T3 [38],Active
same,Activity,NIH3T3 [39],Active
same,Activity,NIH3T3 [40],Active
same,Activity,NIH3T3 [41],Active
same,Activity,Mus musculus,Non-toxic
same,IC50,cells [3],44.8 nM
same,IC50,cells [4],48.3 nM
same,IC50,cells [5],22.9 nM
same,IC50,cells [6],43.3 nM
same,IC50,cells [7],46.7 nM
same,IC50,cells [8],196 nM
same,IC50,[42],1.6 nM
